Where two headings read alike, the source gives them in different places.
Legend:
P. falciparum 3D7A = assay: Panel of P. falciparum strains: 3D7A; type: cell-based; settings: Plasmodium falciparum, read-out: IC50 (mean μM ± SD) 3D7A
P. falciparum Dd2 = assay: Panel of P. falciparum strains: Dd2; type: cell-based; settings: strain Dd2
P. falciparum FCR3 = assay: Panel of P. falciparum strains: FCR3; type: cell-based; settings: strain FCR3
P. falciparum Tm90C2A = assay: Panel of P. falciparum strains: Tm90C2A; type: cell-based; settings: strain Tm90C2A
P. falciparum Tm90C2B = type: cell-based; settings: strain Tm90C2B
[1] = test system: P. falciparum infected erythrocytes; assay: Blood stages activity, [3H]hypoxanthine incorporation method; type: cell-based; settings: Plasmodium falciparum, Erythrocyte; whole cell activity; read-out: WC IC50
Experimental: The sensitivity of P. falciparum infected erythrocytes to the compound was determined using the [3H]hypoxanthine incorporation method with an inoculum of 0.5% parasitemia (ring stage) and 2% hematocrit. The parasites were grown in RPMI 1640, 25 mM HEPES and supplemented with 5% Albumax. Plates are incubated at 37° C., 5% CO2, 5% O2, 90% N2. After 24 h of incubation, [3H]hypoxanthine is added and plates are incubated for another 24 h. After that period, plates are harvested on a glass fiber filter using a TOMTEC Cell harvester 96. Filters are dried and melt on scintillator sheets and the bound radioactivity is quantified by use of a Wallac Microbeta Trilux (Model 1450 LS-Perkin Elmer). IC50s are determined using Grafit 7 program (Grafit program; Erithacus Software, Horley, Surrey, United Kingdom).

[2] = target: T1, cytochrome bc1 of mitochondria isolated from human cells (HEK293) (Homo sapiens, UniProt P00156); assay: Enzymatic bc1 inhibition, cytochrome c reductase activity, human mitochondria; type: biochemical; settings: for IC50: activity in the human target, read-out: Hbc1 IC50; for Tox window selectivity index: human bc1 vs P. falciparum bc1
T1 construct: endogenous in cells; host or cells: HEK293 (isolated mitochondria)
Experimental: (§1) For cytochrome bc1 experiments, mitochondria were isolated as follows: parasitized erythrocytes were harvested by centrifugation and lysed with 0.05% (w/v) saponin in RPMI. Then parasites were washed three times with H-medium (0.07 M sucrose, 0.21 M mannitol, 1 mM EGTA, 5 mM MgCl2, 5 mM KH2PO4, and 4 mM HEPES, pH 7.4) and resuspended in the same medium in the presence of 1 mM PMSF and protease inhibitor cocktail (Roche Complete). Parasites were disrupted by N2 cavitation (4639 Cell disruption Bomb, Parr Instrument, Moline, IL, USA) at 1600 psi for 25 min at 4° C. Unbroken cells and cell debris were removed by centrifugation at 1,200×g for 10 min at 4° C. The mitochondrial fraction was pelleted at 10,000×g for 20 min at 4° C. The mitochondrial pellet was gently resuspended in 0.8 M sucrose, 1 mM EDTA, 10 mM Tris-HCl PH 7.4, and 0.1% BSA prior to separation on a 1-2 M sucrose gradient. The sample was centrifuged on a gradient at 80,000×g for 2 hr at 4° C. The mitochondria were then recovered and washed with 1 mM EDTA, 10 mM Tris-HCL pH 7.4 to remove sucrose, and resuspended in H-medium with protease inhibitor cocktail and 1 mM PMSF. Samples were stored at −80° C. until use. In the case of human mitochondria, HEK293 human cell line was used as starting material. Cells were pelleted at 400×g 10 min and disrupted by N2 cavitation. Mitochondria then were isolated using the method described above. Cytochrome c reductase activity was assayed by a modification of the method of Fry and Pudney, Biochem. Pharmacol., 43 (1992), pp. 1545-1553. Mitochondria (40 μg/ml) were diluted in reaction buffer (250 mM sucrose, 50 mM KH2PO4, 0.2 mM EDTA, 1 mM NaN3, and 2.5 mM KCN) containing 50 μM cytochrome c. Reactions were started by addition of 25 μM decylubiquinol and monitored by reduction of cytochrome c at 550 nm. To assure the linearity of the enzymatic reaction only data from the first 60 s were collected. Decylubiquinol substrate was prepared by reducing decylubiquinone (Sigma-Aldrich, St. Louis, MO, USA) in ethanol with sodium borohydride. Decylubiquinol was aliquoted and stored in acidified ethanol at −80° C. Inhibition of bc1 activity on mitochondria isolated from human parasites (P. falciparum 3D7A), rodent parasites (P. berghei ANKA) and human cells (HEK293).

[3] = target: T2, cytochrome bc1 of mitochondria isolated from human parasites (P. falciparum 3D7A) (Plasmodium falciparum, UniProt Q02768); assay: Enzymatic bc1 inhibition, cytochrome c reductase activity, P. falciparum mitochondria; type: biochemical
T2 construct: endogenous in cells; host or cells: P. falciparum 3D7A parasites from parasitized erythrocytes (isolated mitochondria)
Experimental: as §1

[4] = activity in the P. falciparum target, read-out: p.fbc1 IC50

T2 sequence (Q02768 whole entry): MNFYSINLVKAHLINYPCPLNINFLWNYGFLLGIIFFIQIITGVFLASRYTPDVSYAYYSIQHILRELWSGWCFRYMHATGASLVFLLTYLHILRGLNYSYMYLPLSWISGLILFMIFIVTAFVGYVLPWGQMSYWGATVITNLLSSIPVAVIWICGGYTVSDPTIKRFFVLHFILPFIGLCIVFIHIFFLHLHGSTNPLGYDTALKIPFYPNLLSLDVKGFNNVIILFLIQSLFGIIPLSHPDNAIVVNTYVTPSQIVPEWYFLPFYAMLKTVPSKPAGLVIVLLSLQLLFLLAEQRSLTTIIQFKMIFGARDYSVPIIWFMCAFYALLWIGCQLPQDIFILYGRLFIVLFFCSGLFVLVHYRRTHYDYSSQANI

C[C@H]1[C@H](OC(=O)CCC(=O)O)O[C@@H]2O[C@@]3(C)CC[C@H]4[C@H](C)CC[C@@H]1[C@@]24OO3 [Artesunate]
IC50 (P. falciparum 3D7A): 0.014 ± 0.0003 µM | Pf IC50 Ratio vs Pf IC50 3D7, Dd2 (P. falciparum Dd2): 1 | Pf IC50 Ratio vs Pf IC50 3D7, FCR3 (P. falciparum FCR3): 1 | Pf IC50 Ratio vs Pf IC50 3D7, Tm90C2A (P. falciparum Tm90C2A): 1 | Pf IC50 Ratio vs Pf IC50 3D7, Tm90C2B (P. falciparum Tm90C2B): 1

O=C1C(O)=C([C@H]2CC[C@H](c3ccc(Cl)cc3)CC2)C(=O)c2ccccc21 [Atovaquone]
IC50 (P. falciparum 3D7A; strain 3D7A): 0.001 ± 0.001 µM | Pf IC50 Ratio vs Pf IC50 3D7, Dd2 (P. falciparum Dd2): 2 | Pf IC50 Ratio vs Pf IC50 3D7, FCR3 (P. falciparum FCR3): >100 | Pf IC50 Ratio vs Pf IC50 3D7, Tm90C2A (P. falciparum Tm90C2A): 1 | Pf IC50 Ratio vs Pf IC50 3D7, Tm90C2B (P. falciparum Tm90C2B): >250

CCN(CC)CCCC(C)Nc1ccnc2cc(Cl)ccc12 (centres unmarked) [Chloroquine]
IC50 (P. falciparum 3D7A): 0.029 ± 0.006 µM | Pf IC50 Ratio vs Pf IC50 3D7, Dd2 (P. falciparum Dd2): >7 | Pf IC50 Ratio vs Pf IC50 3D7, FCR3 (P. falciparum FCR3): >7 | Pf IC50 Ratio vs Pf IC50 3D7, Tm90C2A (P. falciparum Tm90C2A): >7 | Pf IC50 Ratio vs Pf IC50 3D7, Tm90C2B (P. falciparum Tm90C2B): >14

C[C@H]1[C@@H](O)O[C@@H]2O[C@@]3(C)CC[C@H]4[C@H](C)CC[C@@H]1[C@@]24OO3 [Dihydroartemisinine]
IC50 (P. falciparum 3D7A; strain 3D7A): 0.004 ± 0.0001 µM | Pf IC50 Ratio vs Pf IC50 3D7, Dd2 (P. falciparum Dd2): 1 | Pf IC50 Ratio vs Pf IC50 3D7, FCR3 (P. falciparum FCR3): 1 | Pf IC50 Ratio vs Pf IC50 3D7, Tm90C2A (P. falciparum Tm90C2A): 1 | Pf IC50 Ratio vs Pf IC50 3D7, Tm90C2B (P. falciparum Tm90C2B): 1

Cc1[nH]c2sc3cc(-c4ccc(C(F)(F)F)cc4F)ccc3c2c(=O)c1Cl [Example 1, 3-chloro-7-(2-fluoro-4-(trifluoromethyl)phenyl)-2-methylbenzo[4,5] thieno[2,3-b]pyridin-4(1H)-one]
IC50 [1]: 1.46 nM | IC50 [2]: 3300 nM | Tox window selectivity index [2]: 300-600 | IC50 [3]: 4.6 nM | IC50 (P. falciparum 3D7A; strain 3D7A): 0.012 ± 0.002 µM | Pf IC50 Ratio vs Pf IC50 3D7, Dd2 (P. falciparum Dd2): 1 | Pf IC50 Ratio vs Pf IC50 3D7, FCR3 (P. falciparum FCR3): 1 | Pf IC50 Ratio vs Pf IC50 3D7, Tm90C2A (P. falciparum Tm90C2A): 1 | Pf IC50 Ratio vs Pf IC50 3D7, Tm90C2B (P. falciparum Tm90C2B): 7

Cc1[nH]c2sc3cc(-c4cc(C(F)(F)F)ccc4F)ccc3c2c(=O)c1Cl [Example 3, 3-chloro-7-(2-fluoro-5-(trifluoromethyl)phenyl)-2-methylbenzo[4,5]thieno[2,3-b]pyridin-4(1H)-one]
IC50 [1]: 31.6 nM | IC50 [2]: 1520 nM | Tox window selectivity index [2]: 500 | IC50 [3, 4]: 1.8 nM

Cc1[nH]c2sc3cc(-c4ccccc4OC(F)(F)F)ccc3c2c(=O)c1Cl [Example 4, 3-chloro-2-methyl-7-(2-(trifluoromethoxy)phenyl)benzo[4,5]thieno[2,3-b]pyridin-4(1H)-one]
IC50 [1]: 0.732 nM | IC50 [2]: 1560 nM | Tox window selectivity index [2]: 1625 | IC50 [3, 4]: 0.96 nM

Cc1[nH]c2sc3cc(-c4ccc(C(F)(F)F)cc4C(F)(F)F)ccc3c2c(=O)c1Cl [Example 5, 7-(2,4-bis(trifluoromethyl)phenyl)-3-chloro-2-methylbenzo[4,5]thieno[2,3-b]pyridin-4(1H)-one]
IC50 [1]: 0.433 nM | IC50 [2]: 2420 nM | Tox window selectivity index [2]: 2200 | IC50 [3]: 1.1 nM

Cc1[nH]c2sc3cc(-c4ccc(CO)cc4)ccc3c2c(=O)c1Cl [Example 6, 3-chloro-7-(4-(hydroxymethyl)phenyl)-2-methylbenzo[4,5]thieno[2,3-b]pyridin-4(1H)-one]
IC50 [1]: 0.946 nM | IC50 [2]: 5420 nM

Cc1[nH]c2sc3cc(-c4ccc(CN(C)C5CCN(Cc6ccc(OC(F)(F)F)cc6)CC5)cc4)ccc3c2c(=O)c1Cl [Example 7, 3-chloro-2-methyl-7-(4-((methyl(1-(4-(trifluoromethoxy)benzyl)piperidin-4-yl)amino)methyl)phenyl)benzo[4,5]thieno[2,3-b]pyridin-4(1H)-one 2,2,2-trifluoroacetate]
IC50 [1]: 121 nM | IC50 [2]: > 10000 nM

CCCCN(CCCC)CC(O)c1cc(Cl)cc2c1-c1ccc(Cl)cc1/C2=C/c1ccc(Cl)cc1 (centres unmarked) [Lumefantrine]
IC50 (P. falciparum 3D7A): 0.011 ± 0.004 µM | Pf IC50 Ratio vs Pf IC50 3D7, Dd2 (P. falciparum Dd2): 1 | Pf IC50 Ratio vs Pf IC50 3D7, Tm90C2A (P. falciparum Tm90C2A): 0.1 | Pf IC50 Ratio vs Pf IC50 3D7, Tm90C2B (P. falciparum Tm90C2B): 1

OC(c1cc(C(F)(F)F)nc2c(C(F)(F)F)cccc12)C1CCCCN1 (centres unmarked) [Mefloquine]
IC50 (P. falciparum 3D7A; strain 3D7A): 0.037 ± 0.001 µM | Pf IC50 Ratio vs Pf IC50 3D7, Dd2 (P. falciparum Dd2): 1 | Pf IC50 Ratio vs Pf IC50 3D7, FCR3 (P. falciparum FCR3): 1 | Pf IC50 Ratio vs Pf IC50 3D7, Tm90C2A (P. falciparum Tm90C2A): 0.3 | Pf IC50 Ratio vs Pf IC50 3D7, Tm90C2B (P. falciparum Tm90C2B): 1

CCc1nc(N)nc(N)c1-c1ccc(Cl)cc1 [Pyrimethamine]
IC50 (P. falciparum 3D7A; strain 3D7A): 0.032 ± 0.001 µM | Pf IC50 Ratio vs Pf IC50 3D7, Dd2 (P. falciparum Dd2): >312 | Pf IC50 Ratio vs Pf IC50 3D7, FCR3 (P. falciparum FCR3): 3 | Pf IC50 Ratio vs Pf IC50 3D7, Tm90C2A (P. falciparum Tm90C2A): >312 | Pf IC50 Ratio vs Pf IC50 3D7, Tm90C2B (P. falciparum Tm90C2B): >88
